Test results reported in PMC7082118 (Oncotarget, 2020).
Like-named read-outs stand apart in the source and are kept apart here.

Key:
FLT3 signaling = assay: FLT3 inhibitor washout experiment in MOLM-14 cells; type: cell-based, human
MOLM-14-MR cells = assay: cells; details: Homo sapiens, 72 h, read-out: IC50, cell viability
KDR/VEGFR2 = molecular target: T1, KDR/VEGFR2 (Homo sapiens, UniProt P35968); assay: KINOMEscan kinase binding assay
T1 construct: purchased Eurofins (KINOMEscan service)
Description: (§1) Kd values were calculated from duplicate 11-point dose-response curves.
(§2) KINOMEscan kinase binding assays were performed at a Eurofins laboratory as previously described.

FLT1 = molecular target: T2, FLT1 (Homo sapiens, UniProt P17948); assay: KINOMEscan kinase binding assay
T2 construct: purchased Eurofins (KINOMEscan service)
Description: as §1, §2

PDGFRα = molecular target: T3, PDGFRα (Homo sapiens, UniProt P16234); assay: KINOMEscan kinase binding assay; details: kinase PDGFRA (PDGFRA)
T3 construct: purchased Eurofins (KINOMEscan service)
T3 sequence (P16234 24-1089): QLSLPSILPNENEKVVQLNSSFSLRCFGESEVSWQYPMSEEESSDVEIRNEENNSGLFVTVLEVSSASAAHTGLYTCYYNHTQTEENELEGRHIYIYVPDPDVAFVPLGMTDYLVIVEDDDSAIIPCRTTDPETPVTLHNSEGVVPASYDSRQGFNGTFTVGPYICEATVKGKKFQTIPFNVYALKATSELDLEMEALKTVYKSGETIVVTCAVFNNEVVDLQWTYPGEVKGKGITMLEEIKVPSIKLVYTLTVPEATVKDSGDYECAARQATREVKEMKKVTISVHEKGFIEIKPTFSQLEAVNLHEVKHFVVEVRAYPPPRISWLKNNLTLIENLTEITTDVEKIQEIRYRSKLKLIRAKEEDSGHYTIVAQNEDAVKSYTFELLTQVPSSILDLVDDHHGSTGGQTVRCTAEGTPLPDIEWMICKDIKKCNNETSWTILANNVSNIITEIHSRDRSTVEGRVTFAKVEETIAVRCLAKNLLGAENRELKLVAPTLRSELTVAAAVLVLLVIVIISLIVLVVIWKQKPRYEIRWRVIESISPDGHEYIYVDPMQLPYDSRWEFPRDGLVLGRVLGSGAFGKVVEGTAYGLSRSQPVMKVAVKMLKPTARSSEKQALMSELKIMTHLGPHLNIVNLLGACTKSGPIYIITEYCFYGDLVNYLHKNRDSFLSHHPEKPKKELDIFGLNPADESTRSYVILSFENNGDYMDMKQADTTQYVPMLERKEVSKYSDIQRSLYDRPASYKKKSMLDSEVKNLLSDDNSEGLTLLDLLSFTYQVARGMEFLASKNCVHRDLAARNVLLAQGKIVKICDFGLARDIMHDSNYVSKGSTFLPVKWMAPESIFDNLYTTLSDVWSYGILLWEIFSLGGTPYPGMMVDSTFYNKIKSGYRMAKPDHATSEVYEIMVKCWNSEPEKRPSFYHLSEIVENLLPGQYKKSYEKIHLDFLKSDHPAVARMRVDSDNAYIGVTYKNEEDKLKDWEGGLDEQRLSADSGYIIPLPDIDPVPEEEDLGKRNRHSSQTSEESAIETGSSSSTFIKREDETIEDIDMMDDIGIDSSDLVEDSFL
Description: as §1, §2

MEK5 = molecular target: T4, MEK5 (Homo sapiens, UniProt Q13163); assay: KINOMEscan kinase binding assay; details: kinase MEK5 (Entrez MAP2K5)
T4 construct: purchased Eurofins (KINOMEscan service)
T4 sequence (Q13163 whole entry): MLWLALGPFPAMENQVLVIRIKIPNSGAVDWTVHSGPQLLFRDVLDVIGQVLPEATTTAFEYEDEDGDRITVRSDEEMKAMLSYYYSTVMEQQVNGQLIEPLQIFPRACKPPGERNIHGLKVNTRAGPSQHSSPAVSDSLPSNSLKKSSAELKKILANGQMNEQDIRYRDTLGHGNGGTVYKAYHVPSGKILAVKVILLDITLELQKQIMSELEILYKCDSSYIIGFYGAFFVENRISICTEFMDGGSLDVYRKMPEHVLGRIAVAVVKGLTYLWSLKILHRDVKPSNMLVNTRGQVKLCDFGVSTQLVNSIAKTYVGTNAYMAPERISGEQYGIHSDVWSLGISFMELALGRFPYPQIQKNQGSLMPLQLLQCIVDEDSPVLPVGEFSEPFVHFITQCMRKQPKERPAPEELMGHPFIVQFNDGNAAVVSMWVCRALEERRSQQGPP
Description: as §1, §2

CSF1R/FMS = molecular target: T5, CSF1R/FMS (Homo sapiens, UniProt P07333); assay: KINOMEscan kinase binding assay
T5 construct: purchased Eurofins (KINOMEscan service)
Description: as §1, §2

KIT = molecular target: T6, KIT (Homo sapiens, UniProt P10721); assay: KINOMEscan kinase binding assay; details: kinase KIT
T6 construct: purchased Eurofins (KINOMEscan service)
Description: as §1, §2

RET = molecular target: T7, RET (Homo sapiens, UniProt P07949); assay: KINOMEscan kinase binding assay
T7 construct: purchased Eurofins (KINOMEscan service)
Description: as §1, §2

FLT4 = molecular target: T8, FLT4 (Homo sapiens, UniProt P35916); assay: KINOMEscan kinase binding assay
T8 construct: purchased Eurofins (KINOMEscan service)
T8 sequence (P35916 25-1363): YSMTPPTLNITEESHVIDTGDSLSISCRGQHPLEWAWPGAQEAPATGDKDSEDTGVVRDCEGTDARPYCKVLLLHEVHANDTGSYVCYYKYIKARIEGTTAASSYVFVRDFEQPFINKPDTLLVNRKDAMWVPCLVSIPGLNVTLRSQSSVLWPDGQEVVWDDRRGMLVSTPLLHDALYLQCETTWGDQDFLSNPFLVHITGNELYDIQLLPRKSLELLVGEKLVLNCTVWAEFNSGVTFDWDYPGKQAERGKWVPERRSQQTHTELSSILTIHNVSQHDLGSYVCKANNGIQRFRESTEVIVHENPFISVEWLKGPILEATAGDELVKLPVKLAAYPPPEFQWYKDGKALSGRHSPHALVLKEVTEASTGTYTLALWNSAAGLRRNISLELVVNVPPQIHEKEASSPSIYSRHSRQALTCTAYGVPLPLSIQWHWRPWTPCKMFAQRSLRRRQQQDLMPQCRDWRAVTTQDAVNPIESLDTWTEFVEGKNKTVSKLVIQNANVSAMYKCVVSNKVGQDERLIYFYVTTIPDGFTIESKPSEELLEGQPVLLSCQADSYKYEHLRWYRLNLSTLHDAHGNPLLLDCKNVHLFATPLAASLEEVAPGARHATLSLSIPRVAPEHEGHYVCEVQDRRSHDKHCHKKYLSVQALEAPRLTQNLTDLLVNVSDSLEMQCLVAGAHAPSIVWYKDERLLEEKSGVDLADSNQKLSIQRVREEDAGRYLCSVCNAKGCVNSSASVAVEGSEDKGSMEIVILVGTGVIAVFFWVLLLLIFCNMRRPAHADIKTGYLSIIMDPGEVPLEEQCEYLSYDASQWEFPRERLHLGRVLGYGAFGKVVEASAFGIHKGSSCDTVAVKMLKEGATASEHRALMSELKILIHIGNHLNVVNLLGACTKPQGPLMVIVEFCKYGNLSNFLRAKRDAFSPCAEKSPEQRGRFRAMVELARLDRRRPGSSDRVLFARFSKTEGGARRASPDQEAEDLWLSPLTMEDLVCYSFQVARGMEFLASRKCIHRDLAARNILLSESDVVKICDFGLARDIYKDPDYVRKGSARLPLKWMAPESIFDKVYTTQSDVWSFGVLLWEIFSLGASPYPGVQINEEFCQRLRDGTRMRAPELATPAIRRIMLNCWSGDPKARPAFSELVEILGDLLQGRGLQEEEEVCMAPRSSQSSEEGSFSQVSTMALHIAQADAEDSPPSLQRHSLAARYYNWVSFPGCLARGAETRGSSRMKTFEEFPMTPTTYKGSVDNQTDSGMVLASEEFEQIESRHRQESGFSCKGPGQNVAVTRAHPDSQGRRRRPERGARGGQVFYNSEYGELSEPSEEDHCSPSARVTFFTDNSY
Description: as §1, §2

PDGFRβ = molecular target: T9, PDGFRβ (Homo sapiens, UniProt P09619); assay: KINOMEscan kinase binding assay; details: kinase PDGFRB (PDGFRB)
T9 construct: purchased Eurofins (KINOMEscan service)
Description: as §1, §2

ULK2 = molecular target: T10, ULK2 (Homo sapiens, UniProt Q8IYT8); assay: KINOMEscan kinase binding assay; details: kinase ULK2 (ULK2)
T10 construct: purchased Eurofins (KINOMEscan service)
T10 sequence (Q8IYT8 1-1036): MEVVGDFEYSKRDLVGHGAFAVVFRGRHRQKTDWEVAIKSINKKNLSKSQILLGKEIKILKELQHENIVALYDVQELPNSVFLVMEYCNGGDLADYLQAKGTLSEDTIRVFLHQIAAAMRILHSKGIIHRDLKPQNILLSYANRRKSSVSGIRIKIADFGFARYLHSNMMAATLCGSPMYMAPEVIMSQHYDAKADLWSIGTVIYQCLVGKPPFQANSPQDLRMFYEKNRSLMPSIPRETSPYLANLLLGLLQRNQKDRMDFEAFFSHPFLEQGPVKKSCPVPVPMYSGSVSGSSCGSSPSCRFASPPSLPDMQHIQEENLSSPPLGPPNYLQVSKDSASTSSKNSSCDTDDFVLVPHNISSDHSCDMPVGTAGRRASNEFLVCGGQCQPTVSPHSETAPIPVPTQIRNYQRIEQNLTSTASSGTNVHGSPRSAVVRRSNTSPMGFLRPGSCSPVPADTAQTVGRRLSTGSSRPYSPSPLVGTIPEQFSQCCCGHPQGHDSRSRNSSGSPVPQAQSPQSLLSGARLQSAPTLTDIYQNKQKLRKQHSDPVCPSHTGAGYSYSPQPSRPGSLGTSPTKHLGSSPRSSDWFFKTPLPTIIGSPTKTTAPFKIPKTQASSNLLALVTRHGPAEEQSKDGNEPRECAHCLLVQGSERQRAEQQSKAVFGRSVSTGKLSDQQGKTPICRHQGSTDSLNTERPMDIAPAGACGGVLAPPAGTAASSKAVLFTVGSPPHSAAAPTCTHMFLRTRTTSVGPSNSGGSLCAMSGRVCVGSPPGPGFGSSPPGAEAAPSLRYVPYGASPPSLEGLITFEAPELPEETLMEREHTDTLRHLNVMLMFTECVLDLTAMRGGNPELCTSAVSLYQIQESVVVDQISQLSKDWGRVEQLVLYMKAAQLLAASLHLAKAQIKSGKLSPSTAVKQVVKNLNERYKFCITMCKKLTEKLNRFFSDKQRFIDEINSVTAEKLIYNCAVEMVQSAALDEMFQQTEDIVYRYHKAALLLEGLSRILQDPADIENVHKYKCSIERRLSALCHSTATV
Description: as §1, §2

[1] = tested on: midostaurin-resistant MOLM-14 cells; assay: cells; details: Homo sapiens, MOLM-14, read-out: IC50 against midostaurin-resistant MOLM-14 cells
MOLM-14-MR2 tumors = assay: MOLM-14-MR2 xenograft mouse model; type: in vivo; details: MOLM-14-MR2 tumors (NRAS mutated), oral once per day
MV4-11 tumors = assay: MV4-11 xenograft mouse model; details: Figure 3B
MOLM-13-QR cells = assay: cells; details: Homo sapiens, read-out: IC50, cell viability
OCI-AML3 cells = assay: Cell viability assay (CellTiter-Glo 2.0); type: cell-based, human; details: Homo sapiens, OCI-AML-3, 72 h; OCI-AML3, wild-type FLT3, 3 days; read-out: IC50, cell viability
Description: (§3) Human AML cell lines MV4-11, Kasumi-1, HL-60, and THP-1 were purchased from the American Type Culture Collection (Manassas, Virginia, USA). MV4-11 cells were cultured in Iscove’s Modified Dulbecco’s Medium (IMDM; Thermo Fisher Scientific, Waltham, Massachusetts, USA) supplemented with 10% (vol/vol) heat-inactivated fetal bovine serum (FBS; GE Healthcare Ltd, Chicago, Illinois, USA). […] HL-60 cells were cultured in IMDM supplemented with 20% (vol/vol) heat-inactivated FBS. […] Human AML cell lines, MOLM-13, MOLM-14, EOL-1, and OCI-AML3, were purchased from Leibniz-Institut DSMZ-Deutsche Sammlung von Mikroorganismen und Zellkulturen GmbH.
(§4) The amount of ATP in viable cells was quantified as a luminescent signal using the CellTiter-Glo 2.0 Assay (Promega Corporation, Madison, Wisconsin, USA) and EnVision (PerkinElmer Inc, Waltham, Massachusetts, USA) to determine the number of viable cells according to the manufacturers’ instructions.

Kasumi-1 cells = assay: Cell viability assay (CellTiter-Glo 2.0); type: cell-based, human; details: Homo sapiens, Kasumi 1, 72 h
Description: as §3, §4

MV4-11 cells = assay: Cell viability assay (CellTiter-Glo 2.0); type: cell-based, human; details: Homo sapiens, 72 h; MV4-11, FLT3-ITD, 3 days
Description: as §3, §4

EOL-1 cells = assay: Cell viability assay (CellTiter-Glo 2.0); type: cell-based, human; details: Homo sapiens, EOL1, 72 h; EOL-1, wild-type FLT3 with FIP1L-PDGFRα, 3 days
Description: as §3, §4

HL-60 cells = assay: Cell viability assay (CellTiter-Glo 2.0); type: cell-based, human; details: Homo sapiens, 72 h; HL-60, wild-type FLT3, 3 days
Description: as §3, §4

THP-1 cells = assay: Cell viability assay (CellTiter-Glo 2.0); type: cell-based, human; details: Homo sapiens, 72 h; THP-1, wild-type FLT3, 3 days; read-out: IC50, cell viability
Description: as §3, §4

MOLM-14 cells = assay: Cell viability assay (CellTiter-Glo 2.0); type: cell-based, human; details: Homo sapiens, MOLM-14, 72 h, 3 days, read-out: IC50, cell viability
Description: as §3, §4

MOLM-13 cells = assay: Cell viability assay (CellTiter-Glo 2.0); type: cell-based, human; details: Homo sapiens
Description: as §3, §4

MOLM-13-QR2 cells = assay: cells; details: Homo sapiens, read-out: IC50, cell viability
MOLM-14-MR2 cells = assay: cells; details: Homo sapiens, 72 h, read-out: IC50, cell viability

T1 sequence (P35968 20-1356): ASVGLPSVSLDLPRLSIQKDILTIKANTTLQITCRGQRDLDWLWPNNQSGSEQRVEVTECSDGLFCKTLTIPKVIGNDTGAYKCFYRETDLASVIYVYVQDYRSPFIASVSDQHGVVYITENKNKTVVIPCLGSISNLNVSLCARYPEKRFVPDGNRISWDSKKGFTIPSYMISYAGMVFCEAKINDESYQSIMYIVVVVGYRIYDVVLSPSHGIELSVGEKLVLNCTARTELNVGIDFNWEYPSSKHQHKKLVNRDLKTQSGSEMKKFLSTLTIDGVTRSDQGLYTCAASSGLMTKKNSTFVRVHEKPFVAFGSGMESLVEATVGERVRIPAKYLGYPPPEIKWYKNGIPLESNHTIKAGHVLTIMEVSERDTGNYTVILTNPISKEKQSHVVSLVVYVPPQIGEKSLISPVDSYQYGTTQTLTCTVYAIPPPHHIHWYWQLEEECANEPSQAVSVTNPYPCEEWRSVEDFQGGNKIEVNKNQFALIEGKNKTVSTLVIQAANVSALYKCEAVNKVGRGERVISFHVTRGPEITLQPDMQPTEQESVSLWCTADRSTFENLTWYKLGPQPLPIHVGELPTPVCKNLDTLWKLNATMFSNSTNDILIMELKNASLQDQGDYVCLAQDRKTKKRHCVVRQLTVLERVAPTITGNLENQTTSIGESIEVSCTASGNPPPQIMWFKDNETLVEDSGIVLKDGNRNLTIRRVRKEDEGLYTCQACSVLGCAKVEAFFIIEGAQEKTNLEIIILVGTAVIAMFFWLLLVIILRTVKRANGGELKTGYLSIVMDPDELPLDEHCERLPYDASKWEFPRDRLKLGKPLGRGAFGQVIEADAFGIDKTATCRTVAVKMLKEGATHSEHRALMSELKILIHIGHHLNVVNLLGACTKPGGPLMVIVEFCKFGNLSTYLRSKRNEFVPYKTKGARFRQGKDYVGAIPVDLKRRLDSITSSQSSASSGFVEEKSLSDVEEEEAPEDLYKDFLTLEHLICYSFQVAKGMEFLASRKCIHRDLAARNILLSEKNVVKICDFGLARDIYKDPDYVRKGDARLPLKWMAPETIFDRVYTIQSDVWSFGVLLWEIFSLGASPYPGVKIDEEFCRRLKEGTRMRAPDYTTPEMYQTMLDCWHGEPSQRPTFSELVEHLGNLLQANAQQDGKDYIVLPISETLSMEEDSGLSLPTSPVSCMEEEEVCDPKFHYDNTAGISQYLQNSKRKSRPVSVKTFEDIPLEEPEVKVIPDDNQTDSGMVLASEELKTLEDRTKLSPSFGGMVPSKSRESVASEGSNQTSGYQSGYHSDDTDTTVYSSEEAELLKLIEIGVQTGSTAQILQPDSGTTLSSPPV

SMILES: CCc1nc(C(N)=O)c(Nc2ccc(N3CCC(N4CCN(C)CC4)CC3)c(OC)c2)nc1NC1CCOCC1 [Gilteritinib, gilteritinib]
- Durability of inhibition of FLT3 and ERK phosphorylation after removal of inhibitor (FLT3 signaling): no significant inhibitory activity starting 1 hour after removal
- Long-term durability of inhibition of FLT3 signaling after compound withdrawal (FLT3 signaling): no longer able to inhibit FLT3 signaling at 24 hours
- IC50 (MOLM-14-MR cells): 49.3 nM
- Kd (KDR/VEGFR2): 100 nM
- Kd (FLT1): 380 nM
- Kd (PDGFRα): 53 nM
- Kd (MEK5): 7.8 nM
- Kd (CSF1R/FMS): 46 nM
- Kd (KIT): 86 nM
- Kd (RET): 11 nM
- Kd (FLT4): 150 nM
- Kd (PDGFRβ): 240 nM
- Kd (ULK2): 700 nM
- IC50 [1]: 29.1 to 49.3 nM
- EC50, tumor growth inhibition (MOLM-14-MR2 tumors): > 10 mg/kg
- TGI (MV4-11 tumors; 1 mg/kg oral once per day): 48%
- TGI (MV4-11 tumors; 3 mg/kg oral once per day): 82%
- TGI (MV4-11 tumors; 10 mg/kg oral once per day): 100%
- EC90, tumor growth inhibition (MV4-11 tumors; oral once per day): 5.06 mg/kg
- IC50 (MOLM-13-QR cells): 9.68 nM
- IC50 (OCI-AML3 cells): 1420 nM
- IC50 (Kasumi-1 cells): 160 nM
- IC50 (MV4-11 cells): 2.01 nM
- IC50 (EOL-1 cells): 30.9 nM
- IC50 (HL-60 cells): 391 nM
- IC50 (THP-1 cells): 1530 nM
- IC50 (MOLM-14 cells; MOLM-14, FLT3-ITD, Supplementary Table 3): 7.41 nM
- IC50 (MOLM-14 cells; parental MOLM-14, FLT3-ITD, Figure 4B): 7.87 nM
- IC50 (MOLM-13 cells; 72 h, MOLM-13, FLT3-ITD, 3 days, Supplementary Table 3): 10 nM
- IC50 (MOLM-13 cells; parental MOLM-13, FLT3-ITD, Supplementary Table 4): 7.89 nM
- IC50 (MOLM-13-QR2 cells): 43 nM
- IC50 (MOLM-14-MR2 cells): 29.1 nM
